Results from article PMC8264259, “A Novel Ruthenium(II) Complex With Lapachol Induces G2/M Phase Arrest Through Aurora-B Kinase Down-Regulation and ROS-Mediated Apoptosis in Human Prostate Adenocarcinoma Cells” (Frontiers in Oncology, 2021).

Columns and labels:
[1] = test system: A549 (human lung carcinoma); assay: Alamar blue cytotoxicity assay, A549; assay type: cell-based; settings: for IC50: A549, Alamar blue, 24-h incubation, mean ± S.E.M.
Source text: (§1) Human lung carcinoma (A549, ATCC® CCL-185™), human hepatocellular carcinoma (HepG2, ATCC® HB-8065™), and human breast adenocarcinoma (MDA-MB-231, ATCC® HTB-26™) were obtained from American Type Cell Collection (ATCC). Human melanoma (A-375, BCRJ-0278), Human colorectal adenocarcinoma (Caco-2, BCRJ 0059), human prostate adenocarcinoma (DU-145, BCRJ-0078, and PC-3, BCRJ-0269), human mouth fibroblast (FGH, BCRJ-0089), and human prostate epithelial cells (PNT-2, BCRJ-0366) were obtained from Rio de Janeiro Cells Bank (BCRJ). The cells A549, A-375, Caco-2, DU-145, HepG2, MDA-MB-231, and FGH were cultured in Dulbecco’s Modified Eagle’s Medium (DMEM, Gibco-Invitrogen®), PC-3 and PNT-2 cells were grown in Roswell Park Memorial Institute Medium (RPMI-1640, Gibco-Invitrogen®). Both mediums were supplemented according to the needs of each lineage, as recommended by its cell banks with 2 mM L-glutamine (Gibco-Invitrogen®), 10% or 20% fetal bovine serum (Gibco-Invitrogen®), 1% antibiotic-antimycotic solution (5 mg/ml penicillin, 5 mg/ml streptomycin, and 10 mg/ml neomycin, Gibco-Invitrogen®), and 3.7 g/L of NaHCO3 (Sigma-Aldrich). All cell lines were cultured in flasks at 37°C in 5% CO2 and 96% of relative humidity according to the procedures proposed by ([31]), and a mycoplasma stain kit (Sigma-Aldrich) was used to confirm the use of cells devoid of contamination. The assays were conducted between the third and the seventh-cell passage with sub-cultures every 3 to 4 days to maintain exponential growth. The cell viability was checked using the trypan blue dye exclusion assay for all experiments where over 95% of the cells were viable at the beginning of the tests.
(§2) The in vitro antiproliferative activity was quantified using the Alamar blue® assay, according to the method reported by ([32]). Cells were seeded in 96-well plates for all experiments (1.5 × 10^4 cells/well). After 24 h, the complexes were dissolved in DMSO and added to each well and incubated for 24 h. Dilutions of the complexes were prepared to obtain concentrations ranging from 0.3 to 100 μM. […] DMSO (0.1% v/v) was used as the vehicle control. Following 24 h of incubation, 50 μl of Alamar blue® (resazurin at 0.01% w/v, Sigma-Aldrich) was added to each well, and the plates were incubated, at 37°C, in the dark. Fluorescence reading was performed in a Synergy H1 Fluorescence Spectrophotometer (BioTek®), using excitation and emission filters at wavelengths of 560 and 590 nm, respectively. The fluorescence intensity was measured in arbitrary fluorescence units (AFU) and the AFU of untreated cells (CTL) was considered 100%. The cytotoxic effects of the compounds were estimated in terms of cell proliferation inhibition (%) and expressed as half-maximal inhibitory concentration (IC50). The cell proliferation inhibition percentage of cells exposed to treatments was calculated following: % Inhibition = 100 − (AFU of treated well/AFU of control well) × 100). The IC50 values were calculated from the cell proliferation inhibition percentage by nonlinear regression method using CompusSyn® Software.

[2] = test system: A-375 (human malignant melanoma); assay: Alamar blue cytotoxicity assay, A-375; assay type: cell-based; settings: for IC50: A-375, Alamar blue, 24-h incubation, mean ± S.E.M.
Source text: as §1, §2

[3] = test system: MDA-MB-231 (human breast adenocarcinoma); assay: Alamar blue cytotoxicity assay, MDA-MB-231; assay type: cell-based; settings: for IC50: MDA-MB-231, Alamar blue, 24-h incubation, mean ± S.E.M.
Source text: as §1, §2

[4] = test system: Caco-2 (human colorectal adenocarcinoma); assay: Alamar blue cytotoxicity assay, Caco-2; assay type: cell-based; settings: for IC50: Caco-2, Alamar blue, 24-h incubation, mean ± S.E.M.
Source text: as §1, §2

[5] = test system: HepG2 (human hepatocellular carcinoma); assay: Alamar blue cytotoxicity assay, HepG2; assay type: cell-based; settings: for IC50: HepG2, Alamar blue, 24-h incubation, mean ± S.E.M.
Source text: as §1, §2

[6] = test system: DU-145 (human prostate adenocarcinoma); assay: Alamar blue cytotoxicity assay, DU-145; assay type: cell-based; settings: for IC50: DU-145, Alamar blue, 24-h incubation, mean ± S.E.M.
Source text: as §1, §2

[7] = test system: DU-145 MCTSs; assay: 3D multicellular tumor spheroids (MCTSs) culture; assay type: cell-based, human; settings: for IC50: 3D spheroids, 24 h, Alamar blue, read-out: IC50 against the DU-145 MCTSs
Procedure: Multicellular tumor spheroids (MCTSs) were obtained according to the method reported by ([33]). Briefly, 200 μl of a solution of DU-145 cells (2.0 × 10^3 cells/well) were inserted in agarose-coated 96-well plates (1.5% w/v) and cultured in complete medium plus 3% Matrigel® (Corning). DU-145-MCTSs with stable structures had formed after five days. […] Negative control received the vehicle (DMSO 0.1% v/v) that was used for diluting the compounds tested. Finally, the MCTS proliferation inhibition (%) and IC50 were determined by Alamar blue® assay as described above. To investigate morphological changes other MCTSs were treated with 0.25, 0.5, 1.0, 1.5, and 2.0 μM of complex (2) and examined for 7 days. Spheroid integrity and diameter of MCTSs were analyzed by phase-contrast microscopy (Inverted Trinocular Microscope Opton TNB-O5T-PL) using AxioVision LE software (Carl Zeiss, Germany).

[8] = test system: DU-145 cells; assay: Clonogenic assay; assay type: cell-based, human; settings: 24 h treatment, colonies after 7 days
Procedure: The clonogenic assay was performed in accordance with the guidelines of ([34]). […] DMSO (0.1% v/v) was used as the vehicle control. After 24 h, the cells were washed with PBS (Gibco-Invitrogen®) and harvested by trypsinization. Cells were counted using a Neubauer chamber and replated then on cell culture dishes of 21.5 cm^2 in a density of 200 cells per culture dish for each treatment in triplicate. After 7 days, cells were fixed in ice-cold methanol: acetic acid: distilled water (1:1:8), air-dried, and stained with crystal violet (0.5% w/v, Sigma-Aldrich) for 20 min. Colonies with at least 50 cells were counted. Plating efficiency (PE) of DU-145 cells was calculated by the ratio of the number of colonies observed after 7 days of incubation to the number of cells seeded (two hundred). The average of colonies in control was considered as 100%, and the number of colonies that arise after treatment of cells is called the surviving fraction (SF), obtained by:
SF = Numberofcoloniescountedineachtreatment/Numberofcoloniescountedincontrol x PE × 100

[9] = SI = IC50[FGH]/IC50[MDA-MB-231]
[10] = SI = IC50[PNT-2]/IC50[MDA-MB-231]

## CC(C)=CCC1=C([O-])C(=O)c2ccccc2C1=O.F[P-](F)(F)(F)(F)F.[Ru+2].c1ccc(-c2ccccn2)nc1.c1ccc(P(CP(c2ccccc2)c2ccccc2)c2ccccc2)cc1 [complex (1), [Ru(Lap)(dppm)(bipy)]PF6]
[1]
  IC50: 3300 ± 400 nM
[1]; SI = IC50[FGH]/IC50[A549]
  Selectivity index (SI): 0.9
[1]; SI = IC50[PNT-2]/IC50[A549]
  Selectivity index (SI): 1.8
[2]
  IC50: 2500 ± 600 nM
[2]; SI = IC50[FGH]/IC50[A-375]
  Selectivity index (SI): 1.2
[2]; SI = IC50[PNT-2]/IC50[A-375]
  Selectivity index (SI): 2.4
[3]
  IC50: 2100 ± 400 nM
[3]; [9]
  Selectivity index (SI): 1.5
[3]; [10]
  Selectivity index (SI): 2.8
[4]
  IC50: 2000 ± 600 nM
[4]; SI = IC50[FGH]/IC50[Caco-2]
  Selectivity index (SI): 1.5
[4]; SI = IC50[PNT-2]/IC50[Caco-2]
  Selectivity index (SI): 2.9
[5]
  IC50: 1700 ± 500 nM
[5]; SI = IC50[FGH]/IC50[HepG2]
  Selectivity index (SI): 1.8
[5]; SI = IC50[PNT-2]/IC50[HepG2]
  Selectivity index (SI): 3.5
[6]
  IC50: 900 ± 200 nM
[6]; SI = IC50[FGH]/IC50[DU-145]
  Selectivity index (SI): 3.4
[6]; SI = IC50[PNT-2]/IC50[DU-145]
  Selectivity index (SI): 6.5
[7]
  IC50: 2400 nM
[8]; DU-145, 0.125 μM
  survival fraction (SF): 65.1%
[8]; DU-145, 0.25 μM
  survival fraction (SF): 35.1%
[8]; DU-145, 0.5 μM
  survival fraction (SF): 18.3%
[8]; DU-145, 1.0 μM
  survival fraction (SF): 9.0%
[8]; DU-145, 1.5 μM
  survival fraction (SF): 4.3%

## CC(C)=CCC1=C([O-])C(=O)c2ccccc2C1=O.F[P-](F)(F)(F)(F)F.[Ru+2].c1ccc(P(CP(c2ccccc2)c2ccccc2)c2ccccc2)cc1.c1cnc2c(c1)ccc1cccnc12 [complex (2), [Ru(Lap)(dppm)(phen)]PF6]
[1]
  IC50: 2600 ± 100 nM
[1]; SI = IC50[FGH]/IC50[A549]
  Selectivity index (SI): 1.0
[1]; SI = IC50[PNT-2]/IC50[A549]
  Selectivity index (SI): 2.6
[2]
  IC50: 900 ± 300 nM
[2]; SI = IC50[FGH]/IC50[A-375]
  Selectivity index (SI): 2.7
[2]; SI = IC50[PNT-2]/IC50[A-375]
  Selectivity index (SI): 7.5
[3]
  IC50: 2000 nM
[3]; [9]
  Selectivity index (SI): 1.2
[3]; [10]
  Selectivity index (SI): 3.4
[4]
  IC50: 1200 ± 300 nM
[4]; SI = IC50[FGH]/IC50[Caco-2]
  Selectivity index (SI): 2.0
[4]; SI = IC50[PNT-2]/IC50[Caco-2]
  Selectivity index (SI): 5.7
[5]
  IC50: 1500 ± 200 nM
[5]; SI = IC50[FGH]/IC50[HepG2]
  Selectivity index (SI): 1.7
[5]; SI = IC50[PNT-2]/IC50[HepG2]
  Selectivity index (SI): 4.5
[6]
  IC50: 800 ± 100 nM
[6]; DU-145, cotreatment with 5 mM NAC, 24 h, Alamar blue
  cell viability with ROS scavenger NAC: prevented the reduction of cell viability
[6]; SI = IC50[FGH]/IC50[DU-145]
  Selectivity index (SI): 3.1
[6]; SI = IC50[PNT-2]/IC50[DU-145]
  Selectivity index (SI): 8.5
[7]
  IC50: 1900 nM
[7]; DU-145 MCTSs treated with 0.25-2.0 μM, examined for 7 days
  total spheroid area over time: decrease in the total spheroid area
[7]; DU-145 MCTSs, IC50 ratio vs cisplatin
  more potent than cisplatin (fold): ≥ 32 fold
[8]; DU-145, 0.125 μM
  survival fraction (SF): 58.0%
[8]; DU-145, 0.25 μM
  survival fraction (SF): 17.7%
[8]; DU-145, 0.5 μM
  survival fraction (SF): 4.3%
[8]; DU-145, 1.0 μM
  survival fraction (SF): 0%
[8]; DU-145, 1.5 μM
  survival fraction (SF): 0%
